Experimental data as given in US20220288151A1, “COMPOSITIONS AND METHODS FOR TREATING NEUROLOGICAL DISEASES” (CARMEL HAIFA UNIVERSITY ECONOMIC CORPORATION LTD., priority 2019, published 2022).

Key:
[1] = Body weight during TMZ/vehicle i.p. injection protocol; assay type: in vivo; conditions: mice given TMZ or vehicle i.p. on three consecutive days per week for four weeks
Description: The enriched environment (groups 2 and 3) included a running wheel, two different objects, small ball, a short plastic tube, bedding, and a nest. Control animals (groups 1 and 4) were in standard cages including bedding and nest. In both conditions, three mice were housed per cage for four weeks. The mice received a TMZ/vehicle i.p. injection three times a week. On day 29, the mice received a BrdU i.p. injection and were perfused 24 h later for IHC analysis. For neurogenesis suppression, TMZ was dissolved in DMSO at 25 mg/ml and diluted to 1.25 mg/ml in sterile saline. The mice were given i.p. injections of saline +5% DMSO (vehicle) or TMZ on three consecutive days followed by four days with no injection for four weeks. On the last week, BrdU was given i.p. in 0.9% NaCl at 200 mg/kg body weight.
Sixteen (16) eEF2K double foxed mice were injected with CaMKII-Cre and GFP viruses to the DG and 3 weeks following virus injection were injected i.p TMZ and vehicle. TMZ was dissolved in DMSO at 25 mg/ml and diluted to 1.25 mg/ml in sterile saline. The mice were given i.p. injections of saline +5% DMSO (vehicle) or TMZ on three consecutive days followed by four days with no injection for four weeks. On the last week, BrdU was given i.p. in 0.9% NaCl at 200 mg/kg body weight. […]

[2] = system: eEF2 (pThr56eEF2); assay: Western blot of pThr56eEF2, eEF2 and tubulin in DG and cortex samples after ketamine i.p. injection; assay type: in vivo, mice; conditions: 30 min after injection; for pThr56eEF2 normalized to total eEF2 in DG lysates: dentate gyrus
Description: Mouse brains were quickly excised and snap frozen immediately in liquid nitrogen, and then transferred to −80° C. for later use. The brains were kept in the cryostat cabin for 15 min at −15° C. before starting tissue punching. Four 500 μm thick coronal sections were sliced slowly, and the DG and cortex tissues from both hemispheres were collected by a mouse tissue puncher. The DG and cortex tissues were transferred to a new tubes and kept immediately on dry ice and then transferred to −80° C. until further use. Brain tissues were homogenized in 100 μl of ice-cold homogenization buffer (HEPES 10 mM pH 7.4, EDTA 2 mM pH 7.4, EGTA 2 mM pH 7.4, DTT 0.5 mM (all from Sigma-Aldrich, Rehovot, Israel), 1× protease inhibitor mixture (Sigma-Aldrich Rehovot, Israel); and 1× phosphatase inhibitor mixture (Sigma-Aldrich)). Protein concentration was determined by a BCA kit (CYANAGEN, PRTD1, 0500). Protein Samples were prepared in SDS sample buffer (22.22% glycerol, 22.22% SDS (20% stock), 26.66% (0.5 M Tris PH 6.8), rest DDW) and β-Mercaptoethanol, then were boiled in 100° C. for 5 min. Each sample was divided to 3 aliquots. Each aliquot was thawed on ice and used for blotting only once or twice. The samples were subjected to 10% or 12% gel SDS-PAGE (electrophoresed on Bio-Rad PAGE apparatus) and Western blot analysis. Each sample was loaded with the same amount of total protein (8-12 μg; according to antibody linearity). After transfer to a […] pore size nitrocellulose membrane or PVDF membrane, the blots were blocked with 5% bovine serum albumin (BSA) or non-fat dry milk (blotting-grade blocker, Bio-Rad) in Tris-buffered saline plus 0.5% tween-20 (TBST) at room temperature for 1 hr. The blots were incubated overnight with the suitable primary antibodies. The blots were then subjected to three 5 min washing steps in TBST, after which they were incubated with the corresponding HRP-conjugated secondary antibodies for 1 h at room temperature followed by three 10 min washing steps with TBST. Immunodetection was performed with the enhanced-chemiluminescence EZ-ECL kit (Biological Industries, Israel). The immunoblots were quantified with a CCD camera and Quantity One software (Bio-Rad).
For all tested proteins, polyacrylamide gels were freshly prepared and used on the same day. Polyacrylamide gels (10%, Tris pH 8.8) were used to analyze the expression of eEF2, pThr56eEF2, vimentin, decorin, AMPK, pThr172AMPK, KIFSA, ERK2, pERK2, pS6K1, S6K1 and tubulin. In addition, criterion gels (BIO-RAD) were used to analyze the expression of NSF protein in the different fractions. Samples containing 10 μg protein were loaded for the detection of each protein. Samples containing 8 μg protein were loaded for ERK and pERK and […] for S6K1 and pS6K1. Each immunoblot was measured relative to the background and normalized to the endogenous control (tubulin), taken from the same gel. Mature-BDNF was analyzed using 12% (Tris pH 8.8) polyacrylamide gel and was measured relative to the background and normalized to tubulin from the same gel. Samples containing 12 μg protein were loaded for mature-BDNF. The phoshpo-protein was normalized to tubulin taken from the same gel as well.

[3] = system: WT mice; assay: Forced swim test; assay type: in vivo; conditions: WT naive mice, ketamine 5 mg/kg i.p., 30 min before test, vs saline; last 4 min scored
Description: WT mice were injected with ketamine 5 mg/kg or saline i.p., and 30 min later together with the CaMKII Cre/GFP-injected mice were all subjected to the forced swim test (FST). The mice were placed in a 5-liter transparent glass beaker containing 4-liter warm water at 24° C. The mice were video recorded for 6 min. The last 4 min were manually scored for immobility. Total immobility time (in seconds) is presented in the results.

[4] = ketamine 5 mg/kg i.p. vs control, cortex
[5] = ketamine 5 mg/kg i.p. vs saline

| Structure (SMILES) | body weight throughout the experiment [1] | eEF2 protein level normalized to tubulin in cortex tissue [2, 4] | pT56eEF2 normalized to eEF2 protein in cortex tissue [2, 4] | eEF2 protein levels normalized to tubulin (DG samples) [2, 5] | pThr56eEF2 normalized to total eEF2 in DG lysates [2, 5] | pThr56eEF2 normalized to total eEF2 in DG lysates ([2]; ketamine 5 mg/kg i.p. vs saline, listed as Ketamine) | immobility time in forced swim test [3] |
| --- | --- | --- | --- | --- | --- | --- | --- |
| Cn1nnc2c(C(N)=O)ncn2c1=O [TMZ, Temozolomide] | maintained normal body weight |  |  |  |  |  |  |
| CNC1(c2ccccc2Cl)CCCCC1=O (stereo not shown) [ketamine] |  | no change in eEF2 protein level | reduces pT56eEF2 levels | no change in eEF2 protein levels | peEF2 levels were reduced | induces eEF2 dephosphorylation | significantly lower immobility time |
